We go through three compounds from paper PMC10914731, “Homo-BacPROTAC-induced degradation of ClpC1 as a strategy against drug-resistant mycobacteria” (Nature Communications, 2024).

The term Kd denotes the free concentration of one partner at which half of the binding sites on the other are occupied at equilibrium, for simple one-to-one binding. By koff is commonly meant the first-order rate constant of dissociation. As usually defined, the efflux ratio is a quotient of directional permeabilities that is used to spot active efflux. The term Papp B→A denotes the apparent permeability from the basolateral to the apical side of a cell layer. In general, Papp A→B refers to the apparent permeability from the apical to the basolateral side of a cell layer. A high value points to fast passage.

Each structure is given as a SMILES string. Values after ≈ are worked out from the molar mass of the structure shown. Values joined by “and” are separate entries in the source; they are usually repeats but may differ in a detail not shown here. Equal entries are not always repeated. Where two headings read alike, the source gives them in different places.

One series relates to Mtb # 11291. In words: microbe, parasite or virus in culture. The conditions noted are these: for MIC: read-out: MIC Mtb # 11291. It is filed as cell-based.
The next series relates to Mtb # 8673. In words: microbe, parasite or virus in culture. Format: cell-based.
Another series concerns Mtb ATCC 35825. In words: microbe, parasite or virus in culture. Format: cell-based.
A further series has as its system Mycobacterium avium. Briefly: microbe, parasite or virus in culture. It is filed as cell-based.
The next series deals with Mycobacterium abscessus. In words: microbe, parasite or virus in culture. Format: cell-based.
The next series has as its system Mycobacterium fortuitum. In words: microbe, parasite or virus in culture. It is filed as cell-based.
The subject of series [1] is Mycobacterium intracellulare. Briefly: microbe, parasite or virus in culture. Format: cell-based.
For series [2], the target named is ClpC1 NTD protein (M. tuberculosis) (Mycobacterium tuberculosis, UniProt P9WPC9). Briefly: biochemical. The conditions noted are these: for koff: read-out: koff ClpC1-NTD. Format: binding.
A short description of a further series: in vitro. The conditions noted are these: human; for Papp B→A: basolateral to apical; for Papp A→B: Caco-2, Caco-2 permeability P (A-B), apical to basolateral. The method in brief:
(§1)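 Values are bidirectional Caco-2 apparent permeabilities, P(A−B) and P(B−A), given in 10^-6 cm s-1. The efflux ratio divides P(B−A) by P(A−B), and intrinsic permeability averages the two directions.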

The subject of the next series is Caco-2 monolayers. Briefly: in vitro. Particulars: for Caco-2 Int. Perm: mean value of P(A−B) and P(B−A). The method in brief: as §1
(In general: Caco-2 cells form a polarised layer with tight junctions and transporters.)

A short description of series [3]: Hepatocyte stability, mice. It is filed as in vitro ADME. The conditions noted are these: clearance in hepatocytes. The method in brief: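 Clearance expressed as % of liver blood flow (% Qh), derived from half-life via the well-stirred liver model. Compound at 1 µM final was incubated up to 6 h with ~1 million cells/mL hepatocytes in 50% serum buffer, 37 °C, pH 7.4.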

Series [4] is classed as in vitro ADME, Rat. Particulars: for Hepatocyte Rat: clearance in hepatocytes.
The format of series [5] is in vitro ADME, Human.
For series [6], the system named is M. tuberculosis H37Rv (ATCC 27294). Briefly: microbe, parasite or virus in culture. Format: cell-based.
A further series has as its system Msm 607. Briefly: microbe, parasite or virus in culture. It is filed as cell-based.
The next series has as its system Msm 700084. Briefly: microbe, parasite or virus in culture. It is filed as cell-based.
Setting [7] is: Mycobacterium tuberculosis, mean, n = 2 well replicates.
Where [8] appears, read: Mycobacterium tuberculosis, single well replicates.
Setting [9] is: Experiment 2, three replicate columns.
Setting [10] is: SPR, single independent measurements.
Setting [11] is: Caco-2, Caco-2 permeability P (B-A).
The mark [12] stands for this setting: Mycobacterium tuberculosis, Mtb H37Rv (Supplementary Table 2), read-out: MIC Mtb.
Where [13] appears, read: Mycobacterium tuberculosis, single determinations, read-out: Mtb MIC.
The mark [14] stands for this setting: Mycolicibacterium smegmatis, 607, read-out: MIC Msm 607.
Setting [15] is: Mycolicibacterium smegmatis, 700084, single determinations, read-out: Msm 700084 MIC.
Setting [16] is: Mycolicibacterium smegmatis, 700084, read-out: MIC Msm 700084.

Sequence of ClpC1 NTD protein (M. tuberculosis) (P9WPC9 1-156, looked up, natural form): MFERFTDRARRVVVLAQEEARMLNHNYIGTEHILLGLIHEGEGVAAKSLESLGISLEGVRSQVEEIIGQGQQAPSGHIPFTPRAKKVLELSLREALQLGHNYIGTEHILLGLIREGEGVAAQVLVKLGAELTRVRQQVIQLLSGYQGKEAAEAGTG

Take `NCC[C@H](O)C(=O)N[C@@H]1C[C@H](N)[C@@H](O[C@H]2O[C@H](CN)[C@@H](O)[C@H](O)[C@H]2O)[C@H](O)[C@H]1O[C@H]1O[C@H](CO)[C@@H](O)[C@H](N)[C@H]1O` [Amikacin, reference compound]: the MIC with Mtb # 11291 (setting [7]) was 3.4 µM and 2 µg/mL; with Mtb # 11291 (setting [8]) it was 3.42 µM and 2 µg/mL; in the series with Mtb # 11291 (single well replicates) it was 3.42 µM (≈ 2 µg/mL); with Mtb # 8673 (setting [7]), > 219 µM and > 128 µg/mL; against Mtb # 8673 (setting [8]) it was > 219 µM and > 128 µg/mL; in the series on Mtb # 8673 (single well replicates) it was greater than 218.58 µM. The MIC against Mtb ATCC 35825 (Mycobacterium tuberculosis, ATCC35825, mean, n = 2 well replicates) is 0.1 µM and 0.03 µg/mL; against Mtb ATCC 35825 (Mycobacterium tuberculosis, ATCC35825, single well replicates), 0.03 µg/mL and 0.05 µM; against Mtb ATCC 35825 (single well replicates) it was 0.05 µM (≈ 0.0293 µg/mL); with Mycobacterium avium (Experiment 2, three replicate columns, read-out: MIC (µM) Mycobacterium avium) it was 1.71 µM; in the series on Mycobacterium avium (Mycobacterium avium, Experiment 2, three replicate columns, read-out: MIC (µM) Mycobacterium avium), 1.71 µM; in the series on Mycobacterium avium (Mycobacterium avium, Experiment 2, three replicate columns, read-out: MIC (µg/ml) Mycobacterium avium), 1 µg/mL. Also, the MIC with Mycobacterium avium (Mycobacterium avium, mean ± SD, read-out: MIC Mycobacterium avium) came to 1.7 µM; in the series on Mycobacterium abscessus (Experiment 2, three replicate columns, read-out: MIC (µM) Mycobacterium abscessus) it was 3.42 µM; in the series on Mycobacterium abscessus (Mycobacteroides abscessus, Experiment 2, three replicate columns, read-out: MIC (µM) Mycobacterium abscessus), 3.42 µM; with Mycobacterium abscessus (Mycobacteroides abscessus, Experiment 2, three replicate columns, read-out: MIC (µg/ml) Mycobacterium abscessus), 2 µg/mL; with Mycobacterium abscessus (Mycobacteroides abscessus, mean ± SD, read-out: MIC Mycobacterium abscessus), 3.4 µM; with Mycobacterium fortuitum (Experiment 2, three replicate columns, read-out: MIC (µM) Mycobacterium fortuitum), 0.43 µM. For the same compound, the MIC in the series with Mycobacterium fortuitum (Mycolicibacterium fortuitum, Experiment 2, three replicate columns, read-out: MIC (µM) Mycobacterium fortuitum) came out at 0.43 µM; in the series with Mycobacterium fortuitum (Mycolicibacterium fortuitum, Experiment 2, three replicate columns, read-out: MIC (µg/ml) Mycobacterium fortuitum), 0.25 µg/mL; in the series on Mycobacterium fortuitum (Mycolicibacterium fortuitum, mean ± SD, read-out: MIC Mycobacterium fortuitum), 0.4 µM; in series [1] (Experiment 2, three replicate columns, read-out: MIC (µM) Mycobacterium intracellulare), 0.85 µM; in [1] (Mycobacterium intracellulare, Experiment 2, three replicate columns, read-out: MIC (µM) Mycobacterium intracellulare), 0.85 µM; in series [1] (Mycobacterium intracellulare, Experiment 2, three replicate columns, read-out: MIC (µg/ml) Mycobacterium intracellulare) it was 0.5 µg/mL. Also, the MIC in [1] (Mycobacterium intracellulare, mean ± SD, read-out: MIC Mycobacterium intracellulare) is 0.9 µM. For the same compound, the “MIC Mtb # 11291” value in the series on Mtb # 11291 (single well replicates) worked out at 2 µg/mL (≈ 3.42 µM). Further, the “MIC Mtb # 8673” value against Mtb # 8673 (single well replicates) was greater than 128 µg/mL. In addition, the “MIC Mtb ATCC 35825” value with Mtb ATCC 35825 (single well replicates) was 0.03 µg/mL (≈ 0.0512 µM). The “MIC (µg/ml) Mycobacterium avium” value with Mycobacterium avium (setting [9]) is 1 µg/mL (≈ 1.71 µM). In addition, the “MIC (µg/ml) Mycobacterium abscessus” value in the series on Mycobacterium abscessus (setting [9]) was 2 µg/mL (≈ 3.42 µM). In addition, in the series on Mycobacterium fortuitum (setting [9]), the “MIC (µg/ml) Mycobacterium fortuitum” value came out at 0.25 µg/mL (≈ 0.427 µM). Also, the “MIC (µg/ml) Mycobacterium intracellulare” value in [1] (setting [9]) amounted to 0.50 µg/mL (≈ 0.854 µM).

With `CO[C@H](c1ccccc1)[C@@H]1NC(=O)[C@H](C)NC(=O)[C@H](C[C@@H](C)CO)N(C)C(=O)[C@H](Cc2cn(C)c3ccccc23)N(C)C(=O)[C@H](Cc2cn(CCCCCn3cc(C[C@@H]4NC(=O)[C@H](CC(C)C)N(C)C(=O)[C@H](C(C)C)NC(=O)[C@H]([C@H](OC)c5ccccc5)NC(=O)[C@H](C)NC(=O)[C@H](C[C@@H](C)CO)N(C)C(=O)[C@H](Cc5cn(C)c6ccccc56)N(C)C4=O)nn3)nn2)NC(=O)[C@H](CC(C)C)N(C)C(=O)[C@H](C(C)C)NC1=O` [Compound 22], the Kd was 0.764 nM and 1.13 nM in series [2] (SPR, individual measurements (source data), read-out: KD ClpC1-NTD); 0.9 ± 0.3 nM in series [2] (SPR, read-out: ClpC1-NTD KD Mean ± SD). The “koff ClpC1-NTD” value in series [2] (setting [10]) is 0.01 s⁻¹. Moreover, the koff in [2] (setting [10]) is 0.007 s⁻¹. Besides, the efflux ratio in the series “in vitro” (Caco-2) amounted to 0.3. The Papp B→A is less than 0.051 ×10⁻⁶ cm/s in the series “in vitro” (Caco-2, CACO permeability PEBA) and 0.2 ×10⁻⁶ cm/s in the series “in vitro” (setting [11]). This compound also yielded a Papp A→B in “in vitro” of 0.5 ×10⁻⁶ cm/s. Moreover, the “Permeability Correlation P (A-B)” value in the series on Caco-2 monolayers (influence of Trp-Nα methylation on P(A-B), matched pair, listed under the methylated partner) came out at 0.7. In the series on Caco-2 monolayers (influence of Trp-Nα methylation on efflux ratio, matched pair, listed under the methylated partner), the “Permeability Correlation Ratio” value worked out at 1. Also, the “Caco-2 Int. Perm” value with Caco-2 monolayers is 0.3 10-6 cm s-1. For the same compound, the “Hepatocyte Mice” value in [3] is given as 15 %Qh. Also, in series [4], the “Hepatocyte Stability Rat QH” value is given as 9.923%. In addition, the “Hepatocyte Rat” value in [4] was 10 %Qh. The “Hepatocyte Human” value in series [5] (clearance in hepatocytes) turned out to be 12 %Qh. For the same compound, the MIC in [6] (Mycobacterium tuberculosis, M. tuberculosis H37Rv strain, read-out: MIC Mtb H37Rv Mean ± SD) is 3.1 µM (≈ 6.23 µg/mL); in [6] (setting [12]), 3.1 µM (≈ 6.23 µg/mL); in [6] (Mycobacterium tuberculosis, individual measurements (source data), read-out: Mtb MIC), 3.12 µM (≈ 6.28 µg/mL); in [6] (setting [13]) it was 3.12 µM (≈ 6.28 µg/mL); in series [6] (individual measurements (source data), read-out: Mtb MIC) it was 3.125 µM (≈ 6.28 µg/mL); in the series with Msm 607 (setting [14]), 2.3 ± 1.1 µM (≈ 4.62 µg/mL). For the same compound, the MIC in the series on Msm 700084 (setting [15]) and in the series on Msm 700084 (setting [16]) was greater than 50 µM throughout.

As to `CO[C@H](c1ccc(OCc2cn(CCCCCn3cc(COc4ccc([C@@H](OC)[C@@H]5NC(=O)[C@H](C)NC(=O)[C@H](C[C@@H](C)CO)N(C)C(=O)[C@H](Cc6cn(C)c7ccccc67)NC(=O)[C@H](C(C)C)NC(=O)[C@H](CC(C)C)N(C)C(=O)[C@H](C(C)C)NC5=O)cc4)nn3)nn2)cc1)[C@@H]1NC(=O)[C@H](C)NC(=O)[C@H](C[C@@H](C)CO)N(C)C(=O)[C@H](Cc2cn(C)c3ccccc23)NC(=O)[C@H](C(C)C)NC(=O)[C@H](CC(C)C)N(C)C(=O)[C@H](C(C)C)NC1=O` [SI-40], the Kd in series [2] (SPR (Supplementary Table 1), read-out: KD ClpC1-NTD Mean ± SD) was 0.66 ± 0.04 nM; in [2] (SPR, single independent measurements, read-out: KD ClpC1-NTD) it was 0.686 nM and 0.636 nM. In addition, the “koff ClpC1-NTD” value in series [2] (setting [10]) was found to be 0.0009 s⁻¹. In [2] (setting [10]), the koff worked out at 0.001 s⁻¹. Also, in the series “in vitro”, the Papp A→B is less than 2.5 ×10⁻⁶ cm/s. The compound also showed a Papp B→A in the series “in vitro” (setting [11]) of less than 0.7 ×10⁻⁶ cm/s. The “Caco-2 Int. Perm” value in the series with Caco-2 monolayers is listed as 1.60 10-6 cm s-1. For the same compound, the “Hepatocyte Mice” value in [3] is 15 %Qh. The “Hepatocyte Stability Rat QH” value in series [4] was found to be 11.911%. Besides, the “Hepatocyte Rat” value in series [4] was 12 %Qh. Further, the “Hepatocyte Stability Human QH” value in [5] (Human) is 25.024%. In addition, the MIC is 0.2 µM (≈ 0.419 µg/mL) in [6] (setting [12]); 0.195 µM (≈ 0.409 µg/mL) in series [6] (setting [13]); greater than 50 µM in the series with Msm 607 (setting [14]); greater than 50 µM in the series on Msm 607 (Mycolicibacterium smegmatis, 607, read-out: Msm 607 MIC, single determinations); greater than 50 µM in the series on Msm 700084 (setting [15]); greater than 50 µM with Msm 700084 (setting [16]).
